Measured values published in ChEMBL document CHEMBL3301361, “Experimental in vitro DMPK and physicochemical data on a set of publicly disclosed compounds”.
In brackets after ≈: the same amount, converted by molar mass.

Assays:
[1] = physchem; conditions: pH 7.4 buffer
[2] = physchem; conditions: octan-1-ol/water

Structure (SMILES)	solubility thermodynamic [1] [µM]	logD ([2]; pH 7.4, LogD7.4)	further results
c1ccc2oc(-c3cncc(-c4cnn(C5CCNCC5)c4)c3)nc2c1	87.1 (≈ 30.1 µg/mL)		
O=C(O)CCC[C@@H]1c2ccccc2C[C@H]1NC(=O)c1cc2cc(F)ccc2[nH]1	85.1 (≈ 32.4 µg/mL)		
CNC(=O)[C@@H](NC(=O)[C@H](CC(C)C)[C@@H](Sc1ccccc1)C(=O)NO)C(C)(C)C	83.2 (≈ 35.2 µg/mL)		
O=C(c1ccccc1)N1CCc2ccccc21	91.2 (≈ 20.4 µg/mL)		
COc1cc(S(N)(=O)=O)c(OC)cc1N	93.3 (≈ 21.7 µg/mL)		
C[C@@H](Cc1ccccc1)Oc1cc(OC2CCOCC2)cc(C(=O)Nc2ccc(C(=O)O)cn2)c1	105 (≈ 49.9 µg/mL)		
COc1cc(OC2CNC2)ccc1Nc1ncc(Cl)c(-c2cnc3ccccn23)n1	81.3 (≈ 34.4 µg/mL)		
COc1ccc(Nc2ncnc3cccc(OC4CCN(C)CC4)c23)cc1Cl	87.1 (≈ 34.7 µg/mL)		
CNC(=O)c1ccc(CC(=O)N(C)C2CCN(Cc3ccc(C(F)(F)F)cc3)CC2)cc1	107 (≈ 48 µg/mL)		
CN(C(=O)Cc1ccc(-n2cnnn2)cc1)[C@@H]1CCN(Cc2ccc(C(F)(F)F)nc2)C[C@@H]1F	95.5 (≈ 45.6 µg/mL)		
N#CC1(NC(=O)[C@@H]2CCCC[C@H]2C(=O)N2CCN(c3nc(-c4ccccc4)cs3)CC2)CC1	95.5 (≈ 44.3 µg/mL)		
CC(C)Oc1cc(O[C@H](C)c2ccccc2)cc(C(=O)Nc2ccc(C(=O)O)cn2)c1	112 (≈ 47.2 µg/mL)		
O=C(Cc1cc(Nc2ncnc3cc(OCCCN4CCC[C@@H]4CO)ccc23)[nH]n1)Nc1cccc(F)c1	102 (≈ 53.2 µg/mL)		
CCN(CCO)CCCOc1ccc2c(Nc3cc(CC(=O)Nc4cccc(F)c4F)[nH]n3)ncnc2c1	93.3 (≈ 49 µg/mL)		
CCCN(CCO)CCCOc1ccc2c(Nc3cc(CC(=O)Nc4cccc(F)c4)[nH]n3)ncnc2c1	112 (≈ 58.5 µg/mL)		
CC(C)c1ccc2[nH]c3c(c2c1)CN(C(=O)[C@@H]1CCCC[C@H]1C(=O)NC1(C#N)CC1)CC3	83.2 (≈ 36 µg/mL)		
CN(C)C(=O)c1cc(-c2nc(N3CCOCC3)cc(C3(S(C)(=O)=O)CC3)n2)c2cc[nH]c2c1	100 (≈ 47 µg/mL)		
Cc1cc(C)cc(-c2[nH]c3sc(C(C)(C)C(=O)N4C5CCC4CC5)cc3c2CCN2CCC(CNC(=O)N3CCOCC3)CC2)c1	112 (≈ 72.5 µg/mL)		
Cc1cc(C)cc(-c2[nH]c3sc(C(C)(C)C(=O)N4C5CCC4CC5)cc3c2CCN2CCC(C(=O)N3CCCC(O)C3)CC2)c1 (stereo unspecified)	87.1 (≈ 55 µg/mL)		
C[C@@H](Oc1cccc2ncnc(Nc3ccc4c(cnn4Cc4ccccn4)c3)c12)C(=O)N1CCCC1	110 (≈ 54.1 µg/mL)		
COc1cc2ncnc(Nc3cccc(Cl)c3F)c2cc1CN(C)C1CCNC1=O (stereo unspecified)	89.1 (≈ 38.3 µg/mL)		

Structure (SMILES)	solubility thermodynamic [1] [µM]	logD ([2]; pH 7.4, LogD7.4)	further results
CC(C)Oc1cc(O[C@@H](C)c2ccccc2)cc(C(=O)Nc2ccc(C(=O)O)cn2)c1	89.1 (≈ 37.5 µg/mL)		
c1ccc(CSc2ncnc3[nH]cnc23)cc1	95.5 (≈ 23.1 µg/mL)		
CC(=O)NC1CCN(C(=O)CN2CCN(CCc3c(-c4cc(C)cc(C)c4)[nH]c4sc(C(C)(C)C(=O)N5C6CCC5CC6)cc34)CC2)C1 (stereo unspecified)	107 (≈ 72.1 µg/mL)		
Nc1ccccc1NC(=O)c1ccc(C2CCN(CCC(=O)Nc3ccccc3F)CC2)cc1	112 (≈ 51.7 µg/mL)		
Cc1ccc(/C=C2\SC(=O)NC2=O)cc1	85.1 (≈ 18.7 µg/mL)		
CN(C)CCNS(=O)(=O)c1ccc(Nc2nccc(-c3cnc4cccnn34)n2)cc1	93.3 (≈ 40.9 µg/mL)		
Cn1nc(C(C)(C)C)cc1C(=O)N[C@@H](Cc1cccc(Cl)c1)C(=O)NCC#N	93.3 (≈ 37.5 µg/mL)		
CCOC(=O)c1cc2ccccc2[nH]1	89.1 (≈ 16.9 µg/mL)		
CCCN(CCC)S(=O)(=O)c1ccc(C(=O)O)cc1 [PROBENECID]		0.03	
CCN(CC)CCOC(=O)c1ccc(N)cc1 [PROCAINE]		0	
CC(C)[N+](C)(CCOC(=O)C1c2ccccc2Oc2ccccc21)C(C)C [PROPANTHELINE]		0.2	
O=c1c(O)cccc2cc(O)c(O)c(O)c12 [PURPUROGALLIN]		2.03	
Cc1ncc(CO)c(CO)c1O [PYRIDOXINE]		-0.58	
c1ccc2ncccc2c1 [QUINOLINE]			logD ([2]; pH 7.4): 2.09
O=C(Nc1nnn[nH]1)c1cc(Oc2ccccc2)c2ccccn2c1=O [QUINOTOLAST]		0.67	
COCCCOc1ccnc(C[S+]([O-])c2nc3ccccc3[nH]2)c1C (stereo unspecified) [RABEPRAZOLE]			logD ([2]; pH 7.4): -0.69
C[C@@H]1NC(C)(C)CO[C@@]1(O)c1cccc(Cl)c1 [RADAFAXINE]			logD ([2]; pH 7.4): 1.69
CCC(=O)NCC[C@@H]1CCc2ccc3c(c21)CCO3 [RAMELTEON]		2.57	
NC(Cc1cc(I)c(Oc2ccc(O)c(I)c2)c(I)c1)C(=O)O (stereo unspecified) [RATHYRONINE]		0.97	
Cc1ccc(COC(=O)N2CC[C@H](CNc3ncccn3)[C@H](F)C2)cc1 [RISLENEMDAZ]		3.21	
CC(C)c1nc(CN(C)C(=O)N[C@H](C(=O)N[C@@H](Cc2ccccc2)C[C@H](O)[C@H](Cc2ccccc2)NC(=O)OCc2cncs2)C(C)C)cs1 [RITONAVIR]		4.3	

Structure (SMILES)	solubility thermodynamic [1] [µM]	logD ([2]; pH 7.4, LogD7.4)	further results
C=C(C)[C@H]1Cc2c(ccc3c2O[C@@H]2COc4cc(OC)c(OC)cc4[C@@H]2C3=O)O1 [ROTENONE]			logD ([2]; pH 7.4): 3.57
CC[C@H]1OC(=O)[C@H](C)[C@@H](O[C@H]2C[C@@](C)(OC)[C@@H](O)[C@H](C)O2)[C@H](C)[C@@H](O[C@@H]2O[C@H](C)C[C@H](N(C)C)[C@H]2O)[C@](C)(O)C[C@@H](C)/C(=N\OCOCCOC)[C@H](C)[C@@H](O)[C@]1(C)O [ROXITHROMYCIN]		1.8	
NC(=O)c1ccccc1O [SALICYLAMIDE]		1.09	
NC(=O)c1cn([C@@H]2O[C@H](CO)[C@@H](O)[C@H]2O)c2ncnc(N)c12 [SANGIVAMYCIN]			logD ([2]; pH 7.4): -0.87
NC(Cc1ccc(N(CCCl)CCCl)cc1)C(=O)O (stereo unspecified) [SARCOLYSIN]			logD ([2]; pH 7.4): 0.39
CC(C)CC(N(C)C)C1(c2ccc(Cl)cc2)CCC1 (stereo unspecified) [SIBUTRAMINE]			logD ([2]; pH 7.4): 3.6
O=C(O)c1ccc2c(c1)nc(Nc1cccc(Cl)c1)c1ccncc12 [SILMITASERTIB]		1.29	
C[C@@H]1CN(c2c(F)c(N)c3c(=O)c(C(=O)O)cn(C4CC4)c3c2F)C[C@H](C)N1 [SPARFLOXACIN]		-0.15	
O=C(Oc1ccc(Br)cc1)N1CCN2CCC1CC2 [SSR180711]			logD ([2]; pH 7.4): 1.58
CC(=O)O[C@H]1CC[C@]2(C=O)[C@H]3CC[C@]4(C)[C@@H](C5=CC(=O)OC5)CC[C@]4(O)[C@@H]3CC[C@]2(O)C1 [STROPHANTHIDIN ACETATE]			logD ([2]; pH 7.4): 0.64
COc1ncnc(NS(=O)(=O)c2ccc(N)cc2)c1OC [SULFADOXINE]		-0.73	
Cc1ccnc(NS(=O)(=O)c2ccc(N)cc2)n1 [SULFAMERAZINE]		-0.51	
COc1cc2c(N3CCN(C(=O)Nc4ccc(OC(C)C)cc4)CC3)ncnc2cc1OCCCN1CCCCC1 [TANDUTINIB]		2.6	
CC(C)NCC(O)COc1nccs1 (stereo unspecified) [TAZOLOL]		-0.97	
Cn1nnc2c(C(N)=O)ncn2c1=O [TEMOZOLOMIDE]		-1.08	
CN(C/C=C/C#CC(C)(C)C)Cc1cccc2ccccc12 [TERBINAFINE]		2.83	
CCN(CC)C(=O)N[C@H]1C[C@@H]2c3cccc4[nH]cc(c34)C[C@H]2N(C)C1 [TERGURIDE]			logD ([2]; pH 7.4): 2.73
CCCCNc1ccc(C(=O)OCCN(C)C)cc1 [TETRACAINE]		2.11	
c1ccc2[nH]c(-c3cscn3)nc2c1 [THIABENDAZOLE]		2.35	
S=C(NC1CCCCC1)N1CCC(c2cnc[nH]2)CC1 [THIOPERAMIDE]			logD ([2]; pH 7.4): 2.3
Clc1ccccc1CN1CCc2sccc2C1 [TICLOPIDINE]		3.46	

Structure (SMILES)	solubility thermodynamic [1] [µM]	logD ([2]; pH 7.4, LogD7.4)	further results
Cc1cccc(C)c1NC(=O)C(C)N (stereo unspecified) [TOCAINIDE]		-0.15	
Cc1ccc(C(=O)c2cc(O)c(O)c([N+](=O)[O-])c2)cc1 [TOLCAPONE]		0.74	
Cc1ccc(C(=O)C(C)CN2CCCCC2)cc1 (stereo unspecified) [TOLPERISONE]		1.65	
Cc1cccc(Nc2ccncc2S(=O)(=O)NC(=O)NC(C)C)c1 [TORSEMIDE]		0.3	
OC(CCN1CCCCC1)(c1ccccc1)C1CCCCC1 (stereo unspecified) [TRIHEXYPHENIDYL]		2.68	
CCC(COC(=O)c1cc(OC)c(OC)c(OC)c1)(c1ccccc1)N(C)C (stereo unspecified) [TRIMEBUTINE]			logD ([2]; pH 7.4): 3.77
COc1cc(C(=O)NCc2ccc(OCCN(C)C)cc2)cc(OC)c1OC [TRIMETHOBENZAMIDE]		0.74	
Cc1cc2cc3c(C)cc(=O)oc3c(C)c2o1 [TRIOXSALEN]		3.47	
CN(C)CCN(Cc1ccccc1)c1ccccn1 [TRIPELENNAMINE]		1.28	
N[C@@H](Cc1c[nH]c2ccccc12)C(=O)O [TRYPTOPHAN]		-1.08	
CC(C)[C@H](N)C(=O)OCCOCn1cnc2c(=O)[nH]c(N)nc21 [VALACYCLOVIR]			logD ([2]; pH 7.4): -1.3
COC[C@@H](c1ccc(C(F)(F)F)cc1)N1CCN(C2(C)CCN(C(=O)c3c(C)ncnc3C)CC2)C[C@@H]1C [VICRIVIROC]		2.7	
CS(=O)(=O)c1ccc(C(=O)Nc2ccc(Cl)c(-c3ccccn3)c2)c(Cl)c1 [VISMODEGIB]		2.84	
Fc1ccc(-c2ncn(C3CCNCC3)c2-c2ccncc2)cc1 [VK-19911]		0.3	
COc1cccc([C@H](O)C2CCN(CCc3ccc(F)cc3)CC2)c1OC [VOLINANSERIN]		1.7	
COC(=O)[C@@H]1[C@H]2C[C@H]3c4[nH]c5ccccc5c4CCN3C[C@@H]2CC[C@@H]1O [YOHIMBINE]		1.65	
NS(=O)(=O)Cc1noc2ccccc12 [ZONISAMIDE]		0.55	
CN1CCN(C(=O)OC2c3nccnc3C(=O)N2c2ccc(Cl)cn2)CC1 (stereo unspecified) [ZOPICLONE]			logD ([2]; pH 7.4): 1.1
